Experimental data published in PMC5171800, “Genes encoding norcoclaurine synthase occur as tandem fusions in the Papaveraceae” (Scientific Reports, 2016).
Like-named read-outs stand apart in the source and are kept apart here.

Assays:
CCHNCS2 = tested on: T1, CCHNCS2; experiment: CD spectroscopy at […] nm, (S)-norcoclaurine formation; type: biochemical, Corydalis cheilanthifolia; settings: saturating dopamine; pH 7.3, 37 °C, 50 mM phosphate; 4-HPAA kinetics sigmoidal, table gives Hill coefficient for dopamine
T1 construct: full-length natural tandem fusion of two NCS domains; His-tagged (pET29b), E. coli, TALON purified (purification section prints CCHNCS1)

NDONCS3 = tested on: T2, NDONCS3; experiment: as above; type: biochemical, Nandina domestica; settings: pH 7.3, 37 °C, 50 mM phosphate
T2 construct: full-length single-domain polypeptide with signal peptide region retained; His-tagged (pET29b), E. coli, TALON purified

O=CCc1ccc(O)cc1 = experiment: purified protein; type: biochemical, Thalictrum flavum; settings: saturating dopamine, pH 7.3, 37 °C, 50 mM phosphate, 4-HPAA kinetics sigmoidal, table gives Hill coefficient for dopamine

Compound: O=CCc1ccc(O)cc1 [4-hydroxyphenylacetaldehyde]
- Km (CCHNCS2): 1830 ± 697 µM
- Km (NDONCS3; saturating dopamine, 4-HPAA kinetics sigmoidal, table gives Hill coefficient for dopamine, read-out: Km (μM) (4-HPAA)): 480 ± 120 µM

Compound: NCCc1ccc(O)c(O)c1 [dopamine]
- Km (NDONCS3; saturating 4-HPAA, Hill fit by table (the source assigns sigmoidal kinetics to 4-HPAA), read-out: K’m (μM) (dopamine)): 347 ± 35 µM

Compound: TFLNCS2Δ25 (Thalictrum flavum)
- Km (O=CCc1ccc(O)cc1): 494 ± 112 µM
- kcat (O=CCc1ccc(O)cc1): 2.4 ± 0.2 s⁻¹
